Converted amounts (≈) assume the structure as drawn.
Tested on: Pasteurella multocida
Assay: minimum inhibitory concentration (MIC)
Procedure: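 Broth microdilution MIC (Sensititre BOPO7F bovine plate, CLSI methods) of 19 antimicrobials against field isolates of P. multocida, M. haemolytica, H. somni (deep nasopharyngeal swabs) and E. coli, Enterococcus spp. (rectal swabs) from weaned dairy heifers. Incubation 16-24 h at 35 C. MIC is the lowest concentration preventing visible growth. Values with <= or > lie at the tested range limits. Trimethoprim-sulfamethoxazole is given as the trimethoprim component of a 1:19 mixture.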

CCN1CCN(c2cc3c(cc2F)c(=O)c(C(=O)O)cn3C2CC2)CC1 [Enrofloxacin]
Conditions | minimum inhibitory concentration [µg/mL]
isolate (source animal id): 10 | 1 (≈ 2.78 µM)
isolate (source animal id): 11 | 1 (≈ 2.78 µM)
isolate (source animal id): 12 | 1 (≈ 2.78 µM)
isolate (source animal id): 19 | 1 (≈ 2.78 µM)
isolate (source animal id): 23 | 1 (≈ 2.78 µM)
isolate (source animal id): 26 | 2 (≈ 5.56 µM)
isolate (source animal id): 98 | 2 (≈ 5.56 µM)
isolate (source animal id): 104 | 0.5 (≈ 1.39 µM)
isolate (source animal id): 115 | ≤ 0.12
isolate (source animal id): 117 | > 2
isolate (source animal id): 118 | 2 (≈ 5.56 µM)
isolate (source animal id): 121 | ≤ 0.12
isolate (source animal id): 124 | 1 (≈ 2.78 µM)
isolate (source animal id): 125 | 1 (≈ 2.78 µM)
isolate (source animal id): 128 | ≤ 0.12
isolate (source animal id): 131 | > 2
isolate (source animal id): 135 | > 2
isolate (source animal id): 136 | ≤ 0.12
isolate (source animal id): 140 | 1 (≈ 2.78 µM)
isolate (source animal id): 144 | 1 (≈ 2.78 µM)
isolate (source animal id): 146 | 1 (≈ 2.78 µM)
isolate (source animal id): 150 | ≤ 0.12
isolate (source animal id): 151 | ≤ 0.12
isolate (source animal id): 153 | 1 (≈ 2.78 µM)
isolate (source animal id): 155 | 0.5 (≈ 1.39 µM)
isolate (source animal id): 157 | 2 (≈ 5.56 µM)
isolate (source animal id): 160 | ≤ 0.12
isolate (source animal id): 164 | ≤ 0.12
isolate (source animal id): 165 | ≤ 0.12
isolate (source animal id): 167 | ≤ 0.12
isolate (source animal id): 168 | 2 (≈ 5.56 µM)
isolate (source animal id): 169 | ≤ 0.12
isolate (source animal id): 170 | ≤ 0.12
isolate (source animal id): 171 | ≤ 0.12
isolate (source animal id): 172 | ≤ 0.12
isolate (source animal id): 173 | 2 (≈ 5.56 µM)
isolate (source animal id): 174 | ≤ 0.12
isolate (source animal id): 175 | ≤ 0.12
isolate (source animal id): 176 | ≤ 0.12
isolate (source animal id): 177 | ≤ 0.12
isolate (source animal id): 178 | ≤ 0.12
isolate (source animal id): 179 | ≤ 0.12
isolate (source animal id): 182 | ≤ 0.12
isolate (source animal id): 192 | ≤ 0.12
isolate (source animal id): 193 | ≤ 0.12
isolate (source animal id): 195 | ≤ 0.12
isolate (source animal id): 196 | ≤ 0.12
isolate (source animal id): 197 | ≤ 0.12
isolate (source animal id): 198 | 2 (≈ 5.56 µM)
isolate (source animal id): 199 | ≤ 0.12
isolate (source animal id): 200 | ≤ 0.12
isolate (source animal id): 201 | ≤ 0.12
isolate (source animal id): 203 | ≤ 0.12
isolate (source animal id): 204 | ≤ 0.12
isolate (source animal id): 205 | 2 (≈ 5.56 µM)
isolate (source animal id): 206 | ≤ 0.12
isolate (source animal id): 207 | ≤ 0.12
isolate (source animal id): 208 | ≤ 0.12
isolate (source animal id): 209 | ≤ 0.12
isolate (source animal id): 210 | 2 (≈ 5.56 µM)
isolate (source animal id): 213 | ≤ 0.12
isolate (source animal id): 216 | ≤ 0.12
isolate (source animal id): 223 | > 2
isolate (source animal id): 227 | ≤ 0.12
isolate (source animal id): 229 | 2 (≈ 5.56 µM)
isolate (source animal id): 233 | 2 (≈ 5.56 µM)
isolate (source animal id): 234 | 2 (≈ 5.56 µM)
isolate (source animal id): 237 | > 2
isolate (source animal id): 241 | > 2
isolate (source animal id): 245 | > 2
isolate (source animal id): 247 | 0.5 (≈ 1.39 µM)
isolate (source animal id): 250 | 1 (≈ 2.78 µM)
isolate (source animal id): 254 | 2 (≈ 5.56 µM)
isolate (source animal id): 255 | 2 (≈ 5.56 µM)
isolate (source animal id): 258 | ≤ 0.12
isolate (source animal id): 261 | 2 (≈ 5.56 µM)
isolate (source animal id): 262 | 1 (≈ 2.78 µM)
isolate (source animal id): 269 | ≤ 0.12
isolate (source animal id): 270 | 2 (≈ 5.56 µM)
isolate (source animal id): 274 | > 2
isolate (source animal id): 275 | 2 (≈ 5.56 µM)
isolate (source animal id): 276 | > 2
isolate (source animal id): 277 | ≤ 0.12
isolate (source animal id): 278 | 2 (≈ 5.56 µM)
isolate (source animal id): 279 | 0.5 (≈ 1.39 µM)
isolate (source animal id): 280 | 0.5 (≈ 1.39 µM)
isolate (source animal id): 284 | 2 (≈ 5.56 µM)
isolate (source animal id): 285 | 1 (≈ 2.78 µM)
isolate (source animal id): 287 | 2 (≈ 5.56 µM)
isolate (source animal id): 290 | ≤ 0.12
isolate (source animal id): 294 | ≤ 0.12
isolate (source animal id): 295 | ≤ 0.12
isolate (source animal id): 296 | 1 (≈ 2.78 µM)
isolate (source animal id): 307 | ≤ 0.12
isolate (source animal id): 310 | ≤ 0.12
isolate (source animal id): 311 | ≤ 0.12
isolate (source animal id): 312 | 1 (≈ 2.78 µM)
isolate (source animal id): 313 | 1 (≈ 2.78 µM)
isolate (source animal id): 315 | 1 (≈ 2.78 µM)
isolate (source animal id): 316 | 1 (≈ 2.78 µM)

CS(=O)(=O)c1ccc([C@@H](O)[C@@H](CF)NC(=O)C(Cl)Cl)cc1 [Florfenicol]
Conditions | minimum inhibitory concentration [µg/mL]
isolate (source animal id): 10 | 8 (≈ 22.3 µM)
isolate (source animal id): 11 | 8 (≈ 22.3 µM)
isolate (source animal id): 12 | 8 (≈ 22.3 µM)
isolate (source animal id): 19 | 8 (≈ 22.3 µM)
isolate (source animal id): 23 | 8 (≈ 22.3 µM)
isolate (source animal id): 26 | 8 (≈ 22.3 µM)
isolate (source animal id): 98 | 8 (≈ 22.3 µM)
isolate (source animal id): 104 | 0.5 (≈ 1.4 µM)
isolate (source animal id): 115 | 8 (≈ 22.3 µM)
isolate (source animal id): 117 | 0.5 (≈ 1.4 µM)
isolate (source animal id): 118 | 8 (≈ 22.3 µM)
isolate (source animal id): 121 | 8 (≈ 22.3 µM)
isolate (source animal id): 124 | 1 (≈ 2.79 µM)
isolate (source animal id): 125 | 8 (≈ 22.3 µM)
isolate (source animal id): 128 | 8 (≈ 22.3 µM)
isolate (source animal id): 131 | > 8
isolate (source animal id): 135 | > 8
isolate (source animal id): 136 | 8 (≈ 22.3 µM)
isolate (source animal id): 140 | 0.5 (≈ 1.4 µM)
isolate (source animal id): 144 | 8 (≈ 22.3 µM)
isolate (source animal id): 146 | 8 (≈ 22.3 µM)
isolate (source animal id): 150 | 8 (≈ 22.3 µM)
isolate (source animal id): 151 | 8 (≈ 22.3 µM)
isolate (source animal id): 153 | 8 (≈ 22.3 µM)
isolate (source animal id): 155 | 0.5 (≈ 1.4 µM)
isolate (source animal id): 157 | 8 (≈ 22.3 µM)
isolate (source animal id): 160 | 8 (≈ 22.3 µM)
isolate (source animal id): 164 | 8 (≈ 22.3 µM)
isolate (source animal id): 165 | 8 (≈ 22.3 µM)
isolate (source animal id): 167 | 0.5 (≈ 1.4 µM)
isolate (source animal id): 168 | 1 (≈ 2.79 µM)
isolate (source animal id): 169 | 0.5 (≈ 1.4 µM)
isolate (source animal id): 170 | > 8
isolate (source animal id): 171 | 0.5 (≈ 1.4 µM)
isolate (source animal id): 172 | 0.5 (≈ 1.4 µM)
isolate (source animal id): 173 | 1 (≈ 2.79 µM)
isolate (source animal id): 174 | 0.5 (≈ 1.4 µM)
isolate (source animal id): 175 | 0.5 (≈ 1.4 µM)
isolate (source animal id): 176 | 0.5 (≈ 1.4 µM)
isolate (source animal id): 177 | 0.5 (≈ 1.4 µM)
isolate (source animal id): 178 | 0.5 (≈ 1.4 µM)
isolate (source animal id): 179 | 0.5 (≈ 1.4 µM)
isolate (source animal id): 182 | 0.5 (≈ 1.4 µM)
isolate (source animal id): 192 | 0.5 (≈ 1.4 µM)
isolate (source animal id): 193 | 0.5 (≈ 1.4 µM)
isolate (source animal id): 195 | 0.5 (≈ 1.4 µM)
isolate (source animal id): 196 | 0.5 (≈ 1.4 µM)
isolate (source animal id): 197 | 0.5 (≈ 1.4 µM)
isolate (source animal id): 198 | 1 (≈ 2.79 µM)
isolate (source animal id): 199 | 0.5 (≈ 1.4 µM)
isolate (source animal id): 200 | 0.5 (≈ 1.4 µM)
isolate (source animal id): 201 | 0.5 (≈ 1.4 µM)
isolate (source animal id): 203 | 0.5 (≈ 1.4 µM)
isolate (source animal id): 204 | 0.5 (≈ 1.4 µM)
isolate (source animal id): 205 | 1 (≈ 2.79 µM)
isolate (source animal id): 206 | 0.5 (≈ 1.4 µM)
isolate (source animal id): 207 | 0.5 (≈ 1.4 µM)
isolate (source animal id): 208 | 0.5 (≈ 1.4 µM)
isolate (source animal id): 209 | 0.5 (≈ 1.4 µM)
isolate (source animal id): 210 | 1 (≈ 2.79 µM)
isolate (source animal id): 213 | 0.5 (≈ 1.4 µM)
isolate (source animal id): 216 | 0.5 (≈ 1.4 µM)
isolate (source animal id): 223 | 1 (≈ 2.79 µM)
isolate (source animal id): 227 | 0.5 (≈ 1.4 µM)
isolate (source animal id): 229 | 8 (≈ 22.3 µM)
isolate (source animal id): 233 | 0.5 (≈ 1.4 µM)
isolate (source animal id): 234 | 8 (≈ 22.3 µM)
isolate (source animal id): 237 | 8 (≈ 22.3 µM)
isolate (source animal id): 241 | 8 (≈ 22.3 µM)
isolate (source animal id): 245 | 0.5 (≈ 1.4 µM)
isolate (source animal id): 247 | 0.5 (≈ 1.4 µM)
isolate (source animal id): 250 | 8 (≈ 22.3 µM)
isolate (source animal id): 254 | > 8
isolate (source animal id): 255 | 4 (≈ 11.2 µM)
isolate (source animal id): 258 | 0.5 (≈ 1.4 µM)
isolate (source animal id): 261 | 8 (≈ 22.3 µM)
isolate (source animal id): 262 | > 8
isolate (source animal id): 269 | 0.5 (≈ 1.4 µM)
isolate (source animal id): 270 | 8 (≈ 22.3 µM)
isolate (source animal id): 274 | > 8
isolate (source animal id): 275 | > 8
isolate (source animal id): 276 | 0.5 (≈ 1.4 µM)
isolate (source animal id): 277 | 0.5 (≈ 1.4 µM)
isolate (source animal id): 278 | > 8
isolate (source animal id): 279 | 1 (≈ 2.79 µM)
isolate (source animal id): 280 | 0.5 (≈ 1.4 µM)
isolate (source animal id): 284 | 8 (≈ 22.3 µM)
isolate (source animal id): 285 | > 8
isolate (source animal id): 287 | > 8
isolate (source animal id): 290 | > 8
isolate (source animal id): 294 | > 8
isolate (source animal id): 295 | 8 (≈ 22.3 µM)
isolate (source animal id): 296 | 0.5 (≈ 1.4 µM)
isolate (source animal id): 307 | > 8
isolate (source animal id): 310 | > 8
isolate (source animal id): 311 | 8 (≈ 22.3 µM)
isolate (source animal id): 312 | 8 (≈ 22.3 µM)
isolate (source animal id): 313 | > 8
isolate (source animal id): 315 | > 8
isolate (source animal id): 316 | > 8

Source: the supplement of paper PMC8612539
